Data as given in US5663205A, “Pharmaceutical composition for use in glaucoma treatment” (Senju Pharmaceutical Co. Ltd., priority 1992, dated 1997).

Columns and labels:
conjunctiva = experiment: Test Example 2: conjunctival hyperemia, pigmented rabbits; format: in vivo, pigmented rabbits (Dutch belted rabbits); settings: concentrations of less than 0.5%
cornea = experiment: Test Example 7 (2)(d): observation on fluorescein-dyed spots of the cornea; format: in vivo, Japanese white rabbits; settings: 1% and 0.5% ophthalmic solutions, 28 days
Procedure: (2) Ocular local toxicity test in rabbits of 1.0% and 0.5% ophthalmic solutions of amosulalol hydrochloride by consecutive instillation for 28 days: With 15 male Japanese white rabbits divided into 3 groups each consisting of 5 rabbits, 1.0% and 0.5% ophthalmic solutions of amosulalol hydrochloride as well as physiological saline as a control were applied in one drop (0.05 ml) per time to the right eye of each rabbit alone, four times a day at a regular interval of 2.5 hours, for 28 days consecutively with the left eye being left untreated. (d) Observation on fluorescein-dyed spots of the cornea: Before instillation of 1.0% and 0.5% ophthalmic solutions of amosulalol hydrochloride as well as on the day (Day 1) of initiating the instillation and on the 2nd, 4th, 7th, 14th, 21st, 28th days after initiating the instillation but each time after completion of such instillation, and on the morning of the last instillation (29th day), 10 μl of 0.1% aqueous fluorescein solution was applied topically to the eyes of each test animal, and observation was performed on the abrasion of the corneal epithelial cells with a photo-slit lamp.

[1] = Test Example 7 (2)(a),(b): general conditions and body weight, 28 days instillation; format: in vivo, Japanese white rabbits; settings: 1% and 0.5% ophthalmic solutions, 4 times a day
Procedure: (2) Ocular local toxicity test in rabbits of 1.0% and 0.5% ophthalmic solutions of amosulalol hydrochloride by consecutive instillation for 28 days: With 15 male Japanese white rabbits divided into 3 groups each consisting of 5 rabbits, 1.0% and 0.5% ophthalmic solutions of amosulalol hydrochloride as well as physiological saline as a control were applied in one drop (0.05 ml) per time to the right eye of each rabbit alone, four times a day at a regular interval of 2.5 hours, for 28 days consecutively with the left eye being left untreated. (a) General conditions; Observation was made on the […] for general conditions once a week. (b) Body weight measurement; Body weight was measured once a week.

eyeball = experiment: Test Example 7 (2)(f): optical microscope evaluation of a sagittal section of the eyeball; format: in vivo, Japanese white rabbits; settings: 1% and 0.5% ophthalmic solutions, 28 days
Procedure: (2) Ocular local toxicity test in rabbits of 1.0% and 0.5% ophthalmic solutions of amosulalol hydrochloride by consecutive instillation for 28 days:
With 15 male Japanese white rabbits divided into 3 groups each consisting of 5 rabbits, 1.0% and 0.5% ophthalmic solutions of amosulalol hydrochloride as well as physiological saline as a control were applied in one drop (0.05 ml) per time to the right eye of each rabbit alone, four times a day at a regular interval of 2.5 hours, for 28 days consecutively with the left eye being left untreated.
(f) Evaluation with an optical microscope of a sagittal section of the eyeball;
After completion of the instillation of 1.0% and 0.5% ophthalmic solutions of amosulalol hydrochloride, specimens for optical microscopy were prepared each having a sagittal section of the eyeball from 2 eyes each of the two groups to conduct microscopic examination of the eyelid, conjunctiva, cornea, anterior segment, iris, crystalline lens vitreous body, retinochoroid membrane, screla and optic nerve.

[2] = test system: Hypertensive Intraocular Pressure Induced by Water Loading; experiment: Test Example 4: hypertensive intraocular pressure induced by water loading, white rabbits; format: in vivo; settings: 0.5% aqueous solution
Procedure: Intraocular Pressure Reducing Activity of 0.5% Aqueous Solution of Amosulalol Hydrochloride on Hypertensive Itraocular Pressure Induced by Water Loading White Rabbits
With 5 male white rabbits weighing about 2 kg used as test animals, 50 μl of 0.5% aqueous solution of amosulalol hydrochloride was applied to one eye of each rabbit, with 50 μl of physiological saline being given to the other, and drinking water, 60 ml/kg (37° C.) was loaded by means of an oral probe 30 min later. Intraocular pressure was measured for both eyes using PTG before instillation as well as before water loading and 0.5, 1, 2 and 4 hours after the same.
FIG. 6 is a graph showing the intraocular pressure reducing activity of 0.5% aqueous solution of amosulalol hydrochloride on hypertensive intraocular pressure induced by water loading in white rabbits with time (hour) after instillation taken as abscissa and intraocular pressure (mmHg) as ordinate; each value in mean ± S.E. (number of cases is […]).

[3] = test system: Hypertensive Intraocular Pressure Induced by Laser Irradiation; experiment: Test Example 5: hypertensive intraocular pressure induced by laser irradiation, pigmented rabbits; format: in vivo; settings: 0.5% aqueous solution
Procedure: Intraocular Pressure Reducing Activity of 0.5% Aqueous Solution of Amosulalol Hydrochloride on Hypertensive Intraocular Pressure Induced by Laser Irradiation in Pigmented Rabbits
With 5 male pigmented rabbits weighing about 2 kg used as test animals, 50 μl of 0.5% aqueous solution of amosulalol hydrochloride was applied in a 50 μl portion to one eye of each rabbit, with 50 μl of physiological saline being given to the other. 30 min later, a laser beam was irradiated onto 6 different spots (spot size: 200 μm, power of 0.5 W, for 0.1 sec) of the irises in both eyes in such a manner that the spots were located at an equal distance. Intraocular pressure was measured for both eyes using PTG before instillation as well as before laser irradiation and 15, 30 and 45 min after laser irradiation.
FIG. 7 is a graph showing the intraocular pressure reducing activity of 0.5% aqueous solution of amosulalol hydrochloride on hypertensive intraocular pressure induced by laser irradiation in pigmented rabbits, with time (min) after laser irradiation taken as abscissa and intraocular pressure (mmHg) as ordinate; each value in mean ± S.E. (the number in each case is 8). The signs "a" and "c" designate physiological saline and 0.5% aqueous solution of amosulalol hydrochloride, respectively.

[4] = Test Example 6: freeze-thaw test, precipitation of crystals; format: physicochemical; settings: 0.5% aqueous solution (pH 5.5), left standing at room temperature
Procedure: Investigation on the Processing of Amosulalol Hydrochloride into Ophthalmic Solution: Freeze-Thaw Test (Investigation on a Stabilizing Agent for the Ophthalmic Solution of Amosulalol Hydrochloride)
Consequently, investigation was conducted on a stabilizing agent intended for use in the case of such freezing.
0.5% aqueous solution of amosulalol hydrochloride (pH 5.5), after being admixed with each of the stabilizing agents (Nos. 1 to 5) as described in Table 1 shown below, was filled into a glass ampoule of 5 ml capacity, frozen at -30° C. and left standing at room temperature to conduct inspection for the presence of crystals in it.

**Q.** For `COc1ccccc1OCCNCC(O)c1ccc(C)c(S(N)(=O)=O)c1.Cl` (centres unmarked) [amosulalol hydrochloride, 5-[1-hydroxy-2-[2-(2-methoxyphenoxy)ethylamino]ethyl]-2-methylbenzenesulfonamide hydrochloride], which conjunctival hyperemia (conjunctiva) is on record?
**A.** merely a slight degree of conjunctival hyperemia

**Q.** What about the “observation of fluorescein-dyed spots in the cornea” value (cornea) of the same compound?
**A.** no abnormalities

**Q.** And the body weight measurement [1]?
**A.** no abnormalities

**Q.** And the general conditions [1]?
**A.** no abnormalities

**Q.** What about the “optical microscope evaluation of a sagittal section of the eyeball” value (eyeball) of the same compound?
**A.** no abnormalities

**Q.** What about the “increase in intraocular pressure after water loading” value ([2]; 30 min after water loading, physiological saline 8.7 mmHg) of the same compound?
**A.** 3.4 mmHg

**Q.** What about the “effect on increase in intraocular pressure compared with physiological saline” value ([2]; water loading) of the same compound?
**A.** significantly reduced the increase in intraocular pressure

**Q.** And the “decrease in intraocular pressure before laser irradiation” value ([3]; 30 min after instillation, immediately before laser irradiation)?
**A.** 4.5 mmHg

**Q.** And the “suppressory activity against increase of the intraocular pressure” value ([3]; laser irradiation)?
**A.** exhibits suppressory activity against increase of the intraocular pressure

**Q.** And the “intraocular pressure after laser irradiation” value ([3]; physiological saline increased by 7.9 mmHg about 15 min after irradiation)?
**A.** increased to almost the same level as before instillation

**Q.** What about the “dissolution of crystals after freezing” value [4] of the same compound?
**A.** did not allow the crystals to dissolve
